Assay [1] has as its target Cyclin-dependent kinase 2/cyclin E (Homo sapiens, UniProt P24941). In words: (§1) Selectivity interaction (Enzymatic assay (Reaction Biology)) EUB0001632a CDK2. In kind it is protein-complex assay.
A further assay addresses CDK2/Cyclin A2 (Homo sapiens, UniProt P24941). The description is as §1. In kind it is protein-complex assay.
Assay [2] concerns the target Macrophage colony-stimulating factor 1 receptor (Homo sapiens) (UniProt P07333). Briefly: Selectivity interaction (Kinase panel (Z-LYTE Assay)) EUB0001632a CSF1R. The following applies: at 10 µM.
Assay [3] has as its target STE20/SPS1-related proline-alanine-rich protein kinase (Homo sapiens) (UniProt Q9UEW8). In words: Selectivity interaction (KinomeScan (DiscoverX)) EUB0000595a STK39. Particulars: at 10 µM.
Assay [4] has as its target T1, Serine/threonine-protein kinase Nek2 (Homo sapiens) (UniProt P51955).
T1 sequence (whole entry): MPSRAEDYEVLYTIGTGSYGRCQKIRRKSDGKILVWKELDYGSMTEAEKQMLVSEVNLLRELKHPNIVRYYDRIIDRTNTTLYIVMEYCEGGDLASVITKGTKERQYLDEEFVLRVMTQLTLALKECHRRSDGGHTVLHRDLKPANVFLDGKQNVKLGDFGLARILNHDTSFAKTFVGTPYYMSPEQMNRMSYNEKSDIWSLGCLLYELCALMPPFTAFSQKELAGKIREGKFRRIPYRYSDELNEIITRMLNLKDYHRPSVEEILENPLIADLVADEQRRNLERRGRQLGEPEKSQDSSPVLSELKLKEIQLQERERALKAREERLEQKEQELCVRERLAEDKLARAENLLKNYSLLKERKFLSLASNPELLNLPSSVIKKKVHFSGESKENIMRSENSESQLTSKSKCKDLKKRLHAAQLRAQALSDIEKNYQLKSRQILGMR
Briefly: Selectivity interaction (KinomeScan (DiscoverX)) EUB0001619a NEK2. Particulars: at 1 µM.

Assay [5] deals with T2, Serine/threonine-protein kinase 3 (Homo sapiens) (UniProt Q13188).
T2 sequence (whole entry): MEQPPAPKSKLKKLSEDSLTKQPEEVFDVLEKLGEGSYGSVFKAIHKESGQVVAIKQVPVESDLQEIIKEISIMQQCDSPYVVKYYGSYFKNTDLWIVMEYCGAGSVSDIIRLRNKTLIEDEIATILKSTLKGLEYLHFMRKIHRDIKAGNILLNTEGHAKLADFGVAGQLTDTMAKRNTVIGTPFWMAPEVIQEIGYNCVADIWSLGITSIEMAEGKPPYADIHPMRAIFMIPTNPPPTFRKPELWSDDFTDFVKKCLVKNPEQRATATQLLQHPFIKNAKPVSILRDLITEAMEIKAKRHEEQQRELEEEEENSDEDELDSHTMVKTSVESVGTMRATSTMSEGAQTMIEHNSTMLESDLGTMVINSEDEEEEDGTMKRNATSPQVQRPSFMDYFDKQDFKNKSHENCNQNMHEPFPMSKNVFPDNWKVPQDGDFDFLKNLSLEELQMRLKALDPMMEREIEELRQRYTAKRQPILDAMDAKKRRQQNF
Briefly: Selectivity interaction (ActivX KiNativ screen (ex vivo kinase selectivity in human PBMCs)) EUB0001619a STK3. The format is cell-based. Particulars: PBMC, at 1 µM.

The target of assay [6] is Calcium/calmodulin-dependent protein kinase type II subunit alpha (Homo sapiens, UniProt Q9UQM7). In words: Selectivity interaction (KinomeScan (DiscoverX)) EUB0000666a CAMK2A. Particulars: at 10 µM.
Sequence of Calcium/calmodulin-dependent protein kinase type II subunit alpha (Q9UQM7 whole entry): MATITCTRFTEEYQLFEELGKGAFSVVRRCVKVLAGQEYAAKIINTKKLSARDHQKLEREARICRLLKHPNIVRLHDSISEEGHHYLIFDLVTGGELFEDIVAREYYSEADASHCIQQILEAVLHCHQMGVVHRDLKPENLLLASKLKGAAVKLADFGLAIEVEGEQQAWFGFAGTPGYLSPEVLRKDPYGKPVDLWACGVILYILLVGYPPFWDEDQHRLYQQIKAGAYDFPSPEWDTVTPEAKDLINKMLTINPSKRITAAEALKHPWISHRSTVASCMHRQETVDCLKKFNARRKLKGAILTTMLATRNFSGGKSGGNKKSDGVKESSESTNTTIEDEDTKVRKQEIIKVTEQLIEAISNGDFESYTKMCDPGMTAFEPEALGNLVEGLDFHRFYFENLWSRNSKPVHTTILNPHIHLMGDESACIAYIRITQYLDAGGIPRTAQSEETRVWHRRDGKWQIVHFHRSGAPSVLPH
Assay [7] concerns the target MAP/microtubule affinity-regulating kinase 3 (Homo sapiens) (UniProt P27448). Briefly: Selectivity interaction (KinomeScan (DiscoverX)) EUB0000607a MARK3. Particulars: at 10 µM.
For assay [8], the target named is T3, Mitogen-activated protein kinase kinase kinase 2 (Homo sapiens) (UniProt Q9Y2U5).
T3 sequence (whole entry): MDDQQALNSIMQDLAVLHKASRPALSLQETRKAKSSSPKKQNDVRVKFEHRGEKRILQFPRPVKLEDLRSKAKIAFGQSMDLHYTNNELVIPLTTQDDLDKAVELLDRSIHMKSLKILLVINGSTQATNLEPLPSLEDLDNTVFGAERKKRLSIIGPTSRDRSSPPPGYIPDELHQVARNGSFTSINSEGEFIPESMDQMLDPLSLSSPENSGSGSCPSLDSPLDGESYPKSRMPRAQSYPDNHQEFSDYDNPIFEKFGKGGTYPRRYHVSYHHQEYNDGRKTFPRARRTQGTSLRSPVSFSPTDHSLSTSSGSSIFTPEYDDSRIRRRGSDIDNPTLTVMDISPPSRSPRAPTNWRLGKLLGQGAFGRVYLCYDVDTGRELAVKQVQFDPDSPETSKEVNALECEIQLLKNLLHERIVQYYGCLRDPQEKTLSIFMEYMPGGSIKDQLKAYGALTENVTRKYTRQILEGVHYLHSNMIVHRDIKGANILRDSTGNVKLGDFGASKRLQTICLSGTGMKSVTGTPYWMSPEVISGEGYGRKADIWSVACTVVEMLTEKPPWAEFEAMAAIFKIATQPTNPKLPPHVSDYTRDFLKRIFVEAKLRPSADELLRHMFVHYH
The following applies: at 10 µM.

The target in assay [9] is Glycogen synthase kinase-3 beta (Homo sapiens, UniProt P49841). In words: Selectivity interaction (ProQinase) EUB0000171b GSK3B.
Sequence of Glycogen synthase kinase-3 beta (P49841 whole entry, looked up): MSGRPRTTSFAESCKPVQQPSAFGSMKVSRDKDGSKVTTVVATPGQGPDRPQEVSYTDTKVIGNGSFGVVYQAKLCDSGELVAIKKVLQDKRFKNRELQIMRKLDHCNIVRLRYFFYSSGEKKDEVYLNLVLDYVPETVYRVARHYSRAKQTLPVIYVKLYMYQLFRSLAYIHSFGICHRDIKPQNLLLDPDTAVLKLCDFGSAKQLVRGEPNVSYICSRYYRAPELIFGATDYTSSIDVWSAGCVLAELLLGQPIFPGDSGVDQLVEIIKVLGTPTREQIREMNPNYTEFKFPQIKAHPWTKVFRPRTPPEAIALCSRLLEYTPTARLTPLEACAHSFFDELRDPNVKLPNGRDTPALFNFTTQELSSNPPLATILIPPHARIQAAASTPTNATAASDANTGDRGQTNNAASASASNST
Assay [10] has as its target Ribosomal protein S6 kinase alpha-2 (Homo sapiens) (UniProt Q15349). In words: Selectivity interaction (Upstate Kinase Profiler service (Millipore)) EUB0000056c RPS6KA2. Particulars: at 1 µM.
In assay [11] the target is cGMP-inhibited 3',5'-cyclic phosphodiesterase 3A (Homo sapiens, UniProt Q14432). In words: Selectivity interaction (Phosphodiesterase 3 from human platelets ) EUB0000877a PDE3A. In kind it is cell-based, Platelet.
Assay [12] addresses Serine/threonine-protein kinase N1 (Homo sapiens, UniProt Q16512). Briefly: Selectivity interaction (KinomeScan (DiscoverX)) EUB0000618a PKN1. The following applies: at 10 µM.
Assay [13] deals with Nucleosome-remodeling factor subunit BPTF (Homo sapiens, UniProt Q12830). In words: Selectivity interaction (Human bromodomain panel (DSF assay)) EUB0000233b BPTF.
Assay [14] deals with Prostaglandin G/H synthase 1 (Homo sapiens) (UniProt P23219). In words: Selectivity interaction (Panel of non-epigenetic targets (kinases, GPCRs, ion channels, and transporters, Eurofins) ) EUB0000271b PTGS1. The following applies: at 1 µM.
Sequence of Prostaglandin G/H synthase 1 (Homo sapiens) (P23219 whole entry): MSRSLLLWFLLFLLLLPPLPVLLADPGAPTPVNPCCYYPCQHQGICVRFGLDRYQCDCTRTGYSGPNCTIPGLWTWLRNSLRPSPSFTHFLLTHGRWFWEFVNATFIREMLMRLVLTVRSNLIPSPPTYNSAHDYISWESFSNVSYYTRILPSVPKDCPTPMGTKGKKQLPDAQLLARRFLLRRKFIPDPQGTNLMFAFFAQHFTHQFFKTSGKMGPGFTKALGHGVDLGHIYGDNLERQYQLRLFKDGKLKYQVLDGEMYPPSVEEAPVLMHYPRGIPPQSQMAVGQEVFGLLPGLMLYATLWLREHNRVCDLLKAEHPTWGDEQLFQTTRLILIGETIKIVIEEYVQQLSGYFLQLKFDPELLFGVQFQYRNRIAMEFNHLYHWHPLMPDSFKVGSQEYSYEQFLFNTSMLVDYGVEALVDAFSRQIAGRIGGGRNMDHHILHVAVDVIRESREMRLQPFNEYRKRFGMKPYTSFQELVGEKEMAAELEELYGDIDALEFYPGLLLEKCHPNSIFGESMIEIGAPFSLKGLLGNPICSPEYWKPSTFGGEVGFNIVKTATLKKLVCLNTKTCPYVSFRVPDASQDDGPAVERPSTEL
For assay [15], the target named is Calcium/calmodulin-dependent protein kinase kinase 2 (Homo sapiens) (UniProt Q96RR4). In words: Selectivity interaction (KinomeScan (DiscoverX)) EUB0000229b CAMKK2. Particulars: at 10 µM.
Sequence of Calcium/calmodulin-dependent protein kinase kinase 2 (Homo sapiens) (Q96RR4 2-588 limits assumed): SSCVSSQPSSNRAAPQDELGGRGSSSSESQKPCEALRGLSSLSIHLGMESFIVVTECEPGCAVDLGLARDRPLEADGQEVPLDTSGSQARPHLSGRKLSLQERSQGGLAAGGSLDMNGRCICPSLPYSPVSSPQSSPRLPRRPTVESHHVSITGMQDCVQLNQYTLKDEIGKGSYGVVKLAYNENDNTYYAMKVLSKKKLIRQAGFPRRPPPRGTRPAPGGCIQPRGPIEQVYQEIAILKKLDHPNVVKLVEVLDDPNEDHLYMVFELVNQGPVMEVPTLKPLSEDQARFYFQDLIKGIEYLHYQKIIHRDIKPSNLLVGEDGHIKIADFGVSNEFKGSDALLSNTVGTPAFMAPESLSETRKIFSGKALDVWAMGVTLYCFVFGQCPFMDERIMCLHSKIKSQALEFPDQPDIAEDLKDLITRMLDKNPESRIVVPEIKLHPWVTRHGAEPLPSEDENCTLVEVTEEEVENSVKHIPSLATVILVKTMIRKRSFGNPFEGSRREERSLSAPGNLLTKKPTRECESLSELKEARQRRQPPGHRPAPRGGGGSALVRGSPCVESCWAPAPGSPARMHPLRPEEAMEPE

pIC50: −log10 of the molar value.

Sequence of Serine/threonine-protein kinase N1 (Q16512 2-942 limits assumed): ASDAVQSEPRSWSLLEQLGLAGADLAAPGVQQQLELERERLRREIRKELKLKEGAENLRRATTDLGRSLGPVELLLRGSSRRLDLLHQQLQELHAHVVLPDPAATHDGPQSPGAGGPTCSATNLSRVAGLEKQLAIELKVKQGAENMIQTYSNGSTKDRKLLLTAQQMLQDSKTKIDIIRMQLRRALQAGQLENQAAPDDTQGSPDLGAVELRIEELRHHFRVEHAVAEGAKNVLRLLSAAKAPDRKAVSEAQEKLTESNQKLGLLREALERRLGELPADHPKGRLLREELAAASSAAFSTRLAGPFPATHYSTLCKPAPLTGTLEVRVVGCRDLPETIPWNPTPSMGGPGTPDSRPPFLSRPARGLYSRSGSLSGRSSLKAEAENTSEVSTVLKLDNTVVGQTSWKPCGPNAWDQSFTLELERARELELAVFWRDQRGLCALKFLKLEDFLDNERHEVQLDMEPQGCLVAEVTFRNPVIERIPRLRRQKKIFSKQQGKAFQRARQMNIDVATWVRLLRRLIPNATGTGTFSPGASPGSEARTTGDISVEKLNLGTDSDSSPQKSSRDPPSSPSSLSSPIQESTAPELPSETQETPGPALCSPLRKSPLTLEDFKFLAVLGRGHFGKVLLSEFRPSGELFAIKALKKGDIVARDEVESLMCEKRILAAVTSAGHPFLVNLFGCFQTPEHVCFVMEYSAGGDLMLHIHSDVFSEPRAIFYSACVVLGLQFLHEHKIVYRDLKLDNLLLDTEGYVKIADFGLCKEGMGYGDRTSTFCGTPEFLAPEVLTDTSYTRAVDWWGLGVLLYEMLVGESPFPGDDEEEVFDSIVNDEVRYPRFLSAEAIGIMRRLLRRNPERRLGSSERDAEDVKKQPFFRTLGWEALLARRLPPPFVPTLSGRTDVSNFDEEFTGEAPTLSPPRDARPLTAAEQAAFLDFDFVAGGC
Sequence of MAP/microtubule affinity-regulating kinase 3 (Homo sapiens) (P27448 whole entry, looked up): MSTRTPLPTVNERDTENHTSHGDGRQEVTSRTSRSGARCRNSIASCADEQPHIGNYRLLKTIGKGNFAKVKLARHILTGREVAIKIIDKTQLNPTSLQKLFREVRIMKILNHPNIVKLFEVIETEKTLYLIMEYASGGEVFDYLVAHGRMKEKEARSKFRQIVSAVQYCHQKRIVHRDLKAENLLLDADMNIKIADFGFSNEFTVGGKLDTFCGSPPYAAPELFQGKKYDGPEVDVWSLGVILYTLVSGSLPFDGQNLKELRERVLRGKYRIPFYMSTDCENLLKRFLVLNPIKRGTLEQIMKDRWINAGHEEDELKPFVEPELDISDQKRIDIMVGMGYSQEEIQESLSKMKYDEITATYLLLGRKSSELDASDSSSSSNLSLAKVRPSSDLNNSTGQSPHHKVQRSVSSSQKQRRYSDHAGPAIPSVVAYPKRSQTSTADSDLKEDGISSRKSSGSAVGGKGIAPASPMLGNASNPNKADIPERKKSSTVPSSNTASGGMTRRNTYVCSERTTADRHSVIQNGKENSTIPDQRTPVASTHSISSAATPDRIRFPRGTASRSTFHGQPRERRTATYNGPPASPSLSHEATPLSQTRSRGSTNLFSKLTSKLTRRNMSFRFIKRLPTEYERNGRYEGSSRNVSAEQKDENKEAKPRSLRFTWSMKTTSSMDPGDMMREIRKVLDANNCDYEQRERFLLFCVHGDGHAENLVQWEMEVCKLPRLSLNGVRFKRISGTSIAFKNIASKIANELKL
Sequence of Macrophage colony-stimulating factor 1 receptor (Homo sapiens) (P07333 whole entry): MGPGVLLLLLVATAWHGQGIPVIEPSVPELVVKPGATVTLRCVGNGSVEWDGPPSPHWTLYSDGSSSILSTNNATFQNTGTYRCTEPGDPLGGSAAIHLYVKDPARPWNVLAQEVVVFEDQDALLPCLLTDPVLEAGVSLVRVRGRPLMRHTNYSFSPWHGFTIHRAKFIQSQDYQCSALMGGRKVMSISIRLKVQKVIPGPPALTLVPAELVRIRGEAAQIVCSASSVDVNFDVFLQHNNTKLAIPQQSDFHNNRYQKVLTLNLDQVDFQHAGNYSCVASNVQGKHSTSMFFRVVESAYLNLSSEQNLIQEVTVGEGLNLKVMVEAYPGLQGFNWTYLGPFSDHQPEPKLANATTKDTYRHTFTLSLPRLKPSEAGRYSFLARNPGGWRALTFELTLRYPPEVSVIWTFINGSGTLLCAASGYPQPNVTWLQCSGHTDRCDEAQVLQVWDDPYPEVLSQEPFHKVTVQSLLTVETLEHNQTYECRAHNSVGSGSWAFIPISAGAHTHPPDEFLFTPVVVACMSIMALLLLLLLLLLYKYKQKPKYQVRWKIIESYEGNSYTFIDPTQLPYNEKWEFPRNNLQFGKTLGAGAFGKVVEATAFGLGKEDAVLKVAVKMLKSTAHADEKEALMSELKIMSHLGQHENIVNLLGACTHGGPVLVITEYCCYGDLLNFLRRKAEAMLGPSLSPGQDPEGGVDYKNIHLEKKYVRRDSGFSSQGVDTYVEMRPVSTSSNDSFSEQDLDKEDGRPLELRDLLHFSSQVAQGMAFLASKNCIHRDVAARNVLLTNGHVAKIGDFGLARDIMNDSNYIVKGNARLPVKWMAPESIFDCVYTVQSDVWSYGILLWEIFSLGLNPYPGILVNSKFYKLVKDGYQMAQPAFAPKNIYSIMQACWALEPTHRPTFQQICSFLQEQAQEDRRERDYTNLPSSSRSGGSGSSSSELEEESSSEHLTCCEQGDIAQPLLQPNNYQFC

Usually pIC50 stands for the negative decadic logarithm of the IC50, by convention in mol/L. A lower pIC50 goes with a large IC50. For `Cn1cc(-n2cnc3c(NCc4nc5cc(Cl)c(Cl)cc5[nH]4)nc(N4CCOCC4)nc32)cn1`, the pIC50 (in assay [1]; on CDK2/Cyclin A2) was under 5.00 throughout. The % of control in [2] is 20%.

In assay [3], `COCC(=O)NC/C=C/c1ccc2ncnc(Nc3ccc(Oc4ccc(C)nc4)c(C)c3)c2c1` [CP-724714] yielded a % of control of 100%.

Regarding `N#Cc1cccc(-c2c[nH]c3ncnc(N4CCOCC4)c23)c1`, the % of control in [4] is 100%. Moreover, the % of inhibition in assay [5] came out at 74%.

As to `O=C(NOC[C@H](O)CO)c1ccc(F)c(F)c1Nc1ccc(I)cc1F`, the % of control in assay [6] was determined as 100%.

`CNC(=O)Nc1ccc(-c2nc(N3CC4CCC(C3)O4)c3cnn(C4CCC5(CC4)OCCO5)c3n2)cc1` registered a % of control in assay [7] of 92%.

Molecule `Cc1cc([C@@H](C)Nc2ccccc2C(=O)O)c2nc(N3CCOCC3)cc(=O)n2c1` [AZD-6482] registered a % of control in assay [8] of 100%.

On to `C=CC(=O)Nc1cccc(C(=O)Nc2ccc(Nc3cc(-c4[nH]c(SC)nc4C)ccn3)cc2)c1`, for which the % of control in assay [9] (at 1 µM) was found to be 91%; in [9] (at 5 µM) it was 85%.

For the molecule `Cc1ccc(-c2ccc3c(ccc4sc5c(c43)NC[C@@H](C)NC5=O)n2)cn1`, the % of inhibition in assay [10] was found to be 49%.

Regarding `CCC(=O)N1CC[C@H](Nc2ncnc3c2CN(c2cnc(OC)c(C(F)(F)F)c2)CC3)C1` [LENIOLISIB], the negative logarithm of the IC50 (pIC50) in assay [11] was under 4.52.

In [12], `O[C@H]1CC[C@H](Nc2ncc3nc(Nc4c(F)cc(F)cc4F)n([C@H]4CCOC4)c3n2)CC1` had a % of control of 91%.

In turn, `CN(C)CCCOc1ccc(-c2cc(NCCCn3cccn3)nc(S(C)(=O)=O)n2)cc1` came in with a dTM in assay [13] of 4 K.

As to `Cc1cc(C)cc([C@@H]2c3cc(C)ccc3NC(=O)CN2C(=O)c2ccc(Br)s2)c1`, the % of inhibition in [14] was 17%.

Take `COc1cc(N(C)c2ccnc3ccc(C(F)(F)F)cc23)cc(OC)c1OC`: the % binding in [15] was found to be 85%.

Values taken from ChEMBL document CHEMBL5465560, “Selectivity Literature for EUbOPEN Chemogenomic Library” (2024).
